Results reported in patent US10858316B2, “Small molecule inhibitors of the MCL-1 oncoprotein and uses thereof” (University of Maryland, Baltimore, priority 2015, dated 2020).
Read-outs that look alike come from different tables or passages of the source.

What was measured:
Mcl-1 [1] = test: Fluorescence polarization competition assay (FPCA), Mcl-1 / FITC-Bak BH3 peptide; type: binding, human; details: for Exp. ΔG diff.: between Mcl-1 and Bcl-xL, positive favors Mcl-1; for Selectivity, Ki (Bcl-xL) divided by Ki (Mcl-1): Mcl-1 over Bcl-xL
Procedure, shortened: (§1)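 Purified Mcl-1 (affinity tag cleaved, size-exclusion polished) competed against FITC-labeled Bak-BH3 peptide, read by fluorescence polarization. IC50 from Hill-equation fit; Ki derived from IC50 by the Nikolovska-Coleska equation.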

Mcl-1 [2] = target: Mcl-1 (Homo sapiens (Human), UniProt Q07820); test: as above; type: binding; details: for Mcl-1 Exp ΔG: ΔG=−RTlnKi from experimental Ki
Mcl-1 (Homo sapiens (Human), UniProt Q07820), sequence (Q07820 172-327): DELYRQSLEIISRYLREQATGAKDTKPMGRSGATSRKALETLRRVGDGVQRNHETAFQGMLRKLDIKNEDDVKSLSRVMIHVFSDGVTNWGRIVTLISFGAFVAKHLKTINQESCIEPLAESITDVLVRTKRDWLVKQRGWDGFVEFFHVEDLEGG
Procedure, shortened: as §1

Bcl-xL = Bcl-xL (Homo sapiens (Human), UniProt Q07817); test: Fluorescence polarization competition assay, Bcl-xL; type: binding; details: for Bcl-xL Exp ΔG: ΔG from experimental Ki
Bcl-xL, sequence (Q07817 whole entry): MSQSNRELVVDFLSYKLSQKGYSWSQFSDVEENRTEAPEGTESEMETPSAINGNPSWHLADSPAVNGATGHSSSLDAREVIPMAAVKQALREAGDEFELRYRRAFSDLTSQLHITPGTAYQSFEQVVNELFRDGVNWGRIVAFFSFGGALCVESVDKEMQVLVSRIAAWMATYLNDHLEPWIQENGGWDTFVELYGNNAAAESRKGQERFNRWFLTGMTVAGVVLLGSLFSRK
Method: Fluorescence polarization experiments were conducted using a BMG PHERAstar FS multimode microplate reader equipped with two PMTs for simultaneous measurements of the perpendicular and parallel fluorescence emission. The assays were performed in black polypropylene 384-well microplate (Costar) with a final volume of 20 microliter. […] Regression analysis was carried out using Origin (OriginLab, Northampton, Mass.) to fit the data to the Hill equation (1) to determine the initial binding affinity (KD) and the IC50 in the FPCA. For the fluorescence polarization competition titrations, an equation derived by Nikolovska-Coleska et al. was used to calculate the Ki from the IC50 data.

[3] = FPCA with FITC-Bak, Ki from IC50 by Nikolovska-Coleska equation, read-out: Mcl-1 Ki
[4] = Ki from IC50 by Nikolovska-Coleska equation, NA = no activity, read-out: Bcl-xL Ki

Row | SMILES | Exp. ΔG diff. (Mcl-1 [1]) | Mcl-1 Exp ΔG (Mcl-1 [2]) | Bcl-xL Exp ΔG (Bcl-xL) | Selectivity, Ki (Bcl-xL) divided by Ki (Mcl-1) (Mcl-1 [1]) | Ki (Mcl-1 [2]; [3]) | Ki (Bcl-xL; [4]) | further results
1 | O=C(O)c1cc(S(=O)(=O)Nc2ccc(Br)cc2)c2ccccc2c1O [1; 3a] | 7.24 kJ/mol | -31.7 kJ/mol | -24.5 kJ/mol |  |  |  | 
2 | Cc1cc(Oc2ccc(NS(=O)(=O)c3cc(C(=O)O)c(O)c4ccccc34)cc2)cc(C)c1Cl [3bi; JY-5-371] | 3.51 kJ/mol | -39.5 kJ/mol | -36 kJ/mol |  |  |  | 
3 | COc1ccc(NS(=O)(=O)c2cc(C(=O)O)c(O)c3ccccc23)cc1 [3z; MEL-3-018] | 4.44 kJ/mol | -28.1 kJ/mol | -23.6 kJ/mol |  |  |  | 
4 | Cc1cc(Oc2ccc(N(CC(C)C)S(=O)(=O)c3cc(C(=O)O)c(O)c4ccccc34)cc2)cc(C)c1Cl [3bj; JY-5-377] | 1.88 kJ/mol | -40.5 kJ/mol | -38.6 kJ/mol |  |  |  | 
5 | O=C(O)c1cc(S(=O)(=O)Nc2ccc(Oc3cccc(Br)c3)cc2)c2ccccc2c1O [Compound 3be, 4-(N-(4-(3-Bromophenoxy)phenyl)sulfamoyl)-1-hydroxy-2-naphthoic Acid] |  |  |  | 3.8 | 0.114 µM | 0.3 ± 0.04 µM | 
6 | O=C(O)c1cc(S(=O)(=O)Nc2ccc([N+](=O)[O-])cc2)c2ccccc2c1O [Compound 3ac, 1-Hydroxy-4-(N-(4-nitrophenyl)sulfamoyl)-2-naphthoic Acid] |  |  |  | 5.2 | 4.49 ± 1.2 µM | 23.3 ± 2.5 µM | 
7 | O=C(O)c1cc(S(=O)(=O)Nc2ccc(Br)cc2Br)c2ccccc2c1O [Compound 3o, 4-(N-(2,4-Dibromophenyl)sulfamoyl)-1-hydroxy-2-naphthoic Acid] |  |  |  | 5.5 |  | 2.31 ± 1.35 µM | Ki (Mcl-1 [2]; FPCA, read-out: Mcl-1 Ki): 0.42 µM
8 | O=C(O)c1cc(S(=O)(=O)Nc2ccc(Br)cc2)c2ccccc2c1O [Compound 3a, 4-(N-(4-bromophenyl)sulfamoyl)-1-hydroxy-2-naphthoic Acid] |  |  |  | 19 | 2.76 µM | 51.4 ± 31.3 µM | IC50 (Mcl-1 [2]; FPCA, read-out: IC50 disruption of Mcl-1-Bak-BH3 PPI): 10.9 µM
9 | O=C(O)c1cc(S(=O)(=O)NCc2ccc(Cl)cc2)c2ccccc2c1O [Compound 3f, 4-(N-(4-Chlorobenzyl)sulfamoyl)-1-hydroxy-2-naphthoic Acid] |  |  |  | 16 | 21 ± 3.9 µM | 338 ± 203 µM | 
10 | O=C(O)c1cc(S(=O)(=O)Nc2cccc3ccccc23)c2ccccc2c1O [3p; EW-2-056] | 5.65 kJ/mol | -28.2 kJ/mol | -22.6 kJ/mol |  |  |  | 
11 | O=C(O)c1cc(S(=O)(=O)Nc2ccccc2C(F)(F)F)c2ccccc2c1O [Compound 3u, 1-Hydroxy-4-(N-(2-(trifluoromethyl)phenyl)sulfamoyl)-2-naphthoic Acid] |  |  |  | 4.8 | 4.05 ± 2.11 µM | 19.3 ± 9 µM | 
12 | O=C(O)c1cc(S(=O)(=O)Nc2ccc([N+](=O)[O-])cc2)c2ccccc2c1O [3ac; MEL-3-005] | 4.1 kJ/mol | -30.5 kJ/mol | -26.4 kJ/mol |  |  |  | 
13 | Cc1ccc(Oc2ccc(NS(=O)(=O)c3cc(C(=O)O)c(O)c4ccccc34)cc2)cc1 [Compound 3bc, 1-Hydroxy-4-(N-(4-(p-tolyloxy)phenyl)sulfamoyl)-2-naphthoic Acid] |  |  |  | 2.5 | 0.335 µM | 0.84 ± 0.05 µM | 
14 | O=C(O)c1cc(S(=O)(=O)Nc2ccc(Oc3cccc4ccccc34)cc2)c2ccccc2c1O [3bd; SF-5-300] | 2.43 kJ/mol | -40.4 kJ/mol | -38 kJ/mol |  |  |  | 
15 | O=C(O)c1cc(S(=O)(=O)Nc2ccc(Oc3cccc(Br)c3)cc2)c2ccccc2c1O [3be; SF-5-303] | 2.43 kJ/mol | -39.6 kJ/mol | -37.2 kJ/mol |  |  |  | 
16 | O=C(O)c1cc(S(=O)(=O)NCC2CCCCC2)c2ccccc2c1O [3g; MEL-3-006] | 5.86 kJ/mol | -29.3 kJ/mol | -23.4 kJ/mol |  |  |  | 

Row | SMILES | Exp. ΔG diff. (Mcl-1 [1]) | Mcl-1 Exp ΔG (Mcl-1 [2]) | Bcl-xL Exp ΔG (Bcl-xL) | Selectivity, Ki (Bcl-xL) divided by Ki (Mcl-1) (Mcl-1 [1]) | Ki (Mcl-1 [2]; [3]) | Ki (Bcl-xL; [4]) | further results
17 | O=C(O)c1cc(S(=O)(=O)Nc2ccc3ccccc3c2)c2ccccc2c1O [Compound 3q, 1-Hydroxy-4-(N-(naphthalen-2-yl)sulfamoyl)-2-naphthoic Acid] |  |  |  | 15 | 4.58 ± 1.56 µM | 68.5 ± 36.3 µM | 
18 | O=C(O)c1cc(S(=O)(=O)NCc2ccc(Cl)cc2)c2ccccc2c1O [3f; SF-5-264] | 6.9 kJ/mol | -26.7 kJ/mol | -19.8 kJ/mol |  |  |  | 
19 | COc1ccc(NS(=O)(=O)c2cc(C(=O)O)c(O)c3ccccc23)cc1 [Compound 3z, 1-Hydroxy-4-(N-(4-methoxyphenyl)sulfamoyl)-2-naphthoic Acid] |  |  |  | 6 | 11.9 ± 2.5 µM | 71.9 ± 21 µM | 
20 | O=C(O)c1cc(S(=O)(=O)Nc2ccc(Oc3cccc4ccccc34)cc2)c2ccccc2c1O [Compound 3bd, 1-Hydroxy-4-(N-(4-(naphthalen-1-yloxy)phenyl)sulfamoyl)-2-naphthoic Acid] |  |  |  | 3.7 | 0.082 µM | 0.22 ± 0.06 µM | 
21 | Cc1cc(C)cc(Oc2ccc(NS(=O)(=O)c3cc(C(=O)O)c(O)c4ccccc34)cc2)c1 [Compound 3bf, 4-(N-(4-(3,5-Dimethylphenoxy)phenyl)sulfamoyl)-1-hydroxy-2-naphthoic Acid] |  |  |  | 1.4 | 0.284 µM | 0.39 ± 0.1 µM | 
22 | O=C(O)c1cc(S(=O)(=O)Nc2ccccc2C(F)(F)F)c2ccccc2c1O [3u; TA-1-017] | 3.85 kJ/mol | -30.8 kJ/mol | -26.9 kJ/mol |  |  |  | 
23 | O=C(O)c1cc(S(=O)(=O)NCC2CCCCC2)c2ccccc2c1O [Compound 3g, 4-(N-(Cyclohexylmethyl)sulfamoyl)-1-hydroxy-2-naphthoic Acid] |  |  |  | 11 | 7.31 ± 1.42 µM | 77.6 ± 14.3 µM | 
24 | Cc1cc(Oc2ccc(N(CC(C)C)S(=O)(=O)c3cc(C(=O)O)c(O)c4ccccc34)cc2)cc(C)c1Cl [Compound 3bj, 4-(N-(4-(4-Chloro-3,5-dimethylphenoxy)phenyl)-N-isobutylsulfamoyl)-1-hydroxy-2-naphthoic Acid] |  |  |  | 2.1 | 0.08 ± 0.019 µM | 0.17 ± 0.06 µM | 
25 | O=C(O)c1cc(S(=O)(=O)Nc2ccc(Oc3ccc(Cl)cc3Cl)cc2)c2ccccc2c1O [3bg; SF-5-302] | 2.18 kJ/mol | -40.5 kJ/mol | -38.3 kJ/mol |  |  |  | 
26 | Cc1cc(C)cc(Oc2ccc(NS(=O)(=O)c3cc(C(=O)O)c(O)c4ccccc34)cc2)c1 [3bf; SF-5-306] | 0.795 kJ/mol | -37.4 kJ/mol | -36.6 kJ/mol |  |  |  | 
27 | Cc1ccc(Oc2ccc(NS(=O)(=O)c3cc(C(=O)O)c(O)c4ccccc34)cc2)cc1 [3bc; SF-5-301] | 2.3 kJ/mol | -36.9 kJ/mol | -34.6 kJ/mol |  |  |  | 
28 | O=C(O)c1cc(S(=O)(=O)Nc2ccc3ccccc3c2)c2ccccc2c1O [3q; EW-2-057] | 6.69 kJ/mol | -30.5 kJ/mol | -23.8 kJ/mol |  |  |  | 
29 | Cc1cc(Oc2ccc(S(=O)(=O)N(CC(C)C)c3ccc(C(=O)O)c(O)c3)cc2)cc(C)c1Cl [Compound 4jc117-6] |  |  |  |  |  |  | Ki (Mcl-1 [2]; fluorescence polarization competition assay, read-out: Ki (μM) Mcl-1): 0.02 ± 0.012 µM; Ki (Bcl-xL; fluorescence polarization competition assay, read-out: Ki (μM) Bcl-xL): 0.05 ± 0.01 µM
30 | CC(C)CN(c1ccc(OC(C)C)cc1)S(=O)(=O)c1cc(C(=O)O)c(O)c2ccccc12 [3ba; MEL-2-116] |  | -36 kJ/mol | -29.7 kJ/mol |  |  |  | 
31 | CC(C)CN(c1ccc(C(=O)O)c(O)c1)S(=O)(=O)c1ccccc1 [4jc117-1 13aa] |  |  |  |  | 192 ± 37.5 µM | 154 ± 27.6 µM | 
32 | CS(=O)(=O)NC(=O)c1ccc(N(Cc2ccccc2)S(=O)(=O)c2ccc(Oc3ccccc3)cc2)cc1O [LC-5-112 27] |  |  |  |  | 2.94 ± 0.35 µM | 7.22 ± 1.07 µM | 
